For data set [1], the system named is Pseudomonas aeruginosa PAO1 biofilm. Description: Biofilm assay (96-well PVC plate, crystal violet). The format is cell-based. As for the experimental part:
1% inoculation amount of the bacterial solution cultured overnight was inoculated into 100 μL Jensen liquid medium. Different equal amounts of bacteria solution with C1 to C12, respectively, or without any additional substance were cultured in a 96-well polyvinyl chloride (PVC) plate (costar) overnight at 30° C. without agitation.
The bacterial biomass adsorbed on the 96-well PVC plate was detected by a crystal violet method, and steps were described as below. (1) The non-attached bacteria were removed using a pipettor, then the wells were gently rinsed with normal saline for 3 times. (2) A volume of 120 μL 0.1% crystal violet solution was added to stain the firmly attached bacterial cells in each well, which then staying static at room temperature for 30 min. (3) The PVC plate was taken out, the crystal violet solution was removed with a pipettor, and the non-attached crystal violet solution was washed with normal saline. (4) The crystal violet attached onto the PVC plate was dissolved with 200 μL of 30% acetic acid solution. The OD value of the acetic acid solution in each well was measured at 560 nm with a spectrophotometer.

The subject of data set [2] is Pseudomonas aeruginosa PAO1. Description: Growth curve analysis (OD600). The class given is cell-based. Particulars: 5 mM C9, LB, 37° C., 24 h. The procedure:
Pseudomonas aeruginosa PAO1 (optical density OD600≈1.5) was cultured in LB liquid medium overnight, and 1% inoculation amount of the bacterial solution was inoculated into a fresh LB liquid medium. Two equal amounts of bacterial solution with and without 5 mM coumarin-chalcone compound C9 were cultured in a shaking incubator with 200 rpm at 37° C. for 24 h. OD value of the bacterial solution at 600 nm was measured every hour with a spectrophotometer to trace bacterial growth.

The test system of another data set is PAO1 strains. Description: Bacterial motility assay, twitching plate. The class given is cell-based, Pseudomonas aeruginosa. To be noted: 37° C., 24 hours. As for the experimental part:
PAO1 strains were inoculated into a LBNS agar plate and were cultured overnight at 37° C. Single colonies were respectively stab-inoculated to the bottom of twitching plates with and without the coumarin-chalcone compound C9, and cultured at 37° C. for 24 hours. The growth of bacteria at an interface between the agar and the plastic plate was a twitching movement. When 1% TTC was added to the medium, the area that bacteria have visited may turn red, and then the diameter of the red area on each twitching plate was measured.

Data set [3] relates to Psl polysaccharide production. Description: Psl immunoblot analysis. To be noted: C9 5 mM, Jensen media, 37° C., 24 hours. The class given is cell-based, Pseudomonas aeruginosa. The procedure: Pseudomonas aeruginosa PAO1 was inoculated in Jensen media at 37° C. for 24 hours with shaking and treated with the coumarin-chalcone compound C9 (5 mM) or DMSO (5 mM), respectively. OD600 values of the overnight cultured bacterial solutions were measured, and a bacterial solution with an OD (optical density) of 10 was collected. The bacterial solution with the OD of 10 was a bacterial solution whose OD600 was 2 and the collected volume was 5 mL. The bacterial solution was centrifuged at 13000 r/min for 5 min and the corresponding supernatant was discarded. The obtained precipitate was dissolved in 100 μL of 0.5 M EDTA. Then the EDTA solution was boiled at 100° C. for 5 min and centrifuged, and the precipitate was discarded. The obtained supernatant was treated with proteinase K (final concentration, 0.5 mg/mL) for 1 h at 60° C., followed by inactivation of proteinase K for 30 min at 80° C. to obtain a polysaccharide extract. A volume of 3 μL of polysaccharide extract was spotted onto a nitrocellulose membrane and dried. After washing with TBST for 3 times, a blocking was done with 10% skimmed milk at room temperature for 1 h. The anti-Psl antibody (i.e., a primary antibody) (1:25,000 dilution) was added and then solution was treated at 25° C. for 1 h. […] Western blot data was quantitatively analyzed using Image Lab™ 5.1 software.
For orientation: In western blotting, separated proteins are transferred to a membrane and probed.

For data set [4], the system named is Pseudomonas aeruginosa. Briefly: Virulence in cabbage model. The class given is in vivo. Particulars: C9 5 mM, 37° C., 36 hours, CFU. As for the experimental part: The PAO1 culture inoculated with the coumarin-chalcone compound C9 (5 mM) was injected into a cabbage model and incubated at 37° C. for 36 hours. Then the colony phenotype was observed and colony-forming units (CFU) were calculated.
In the embodiment, the cabbage model was used to carry out the vivo experiment in vivo to study whether the coumarin-chalcone compound C9 affects the virulence of Pseudomonas aeruginosa. FIG. 9 is a schematic diagram illustrating virulences of bacteria of a blank group, a control group, and an experimental group treated with a coumarin-chalcone compound C9.

A short description of data set [5]: Stability at different pH, UV-Vis spectral analysis. The class given is physicochemical. Particulars: UV absorption, pH range of 3.4 to 8.4. As for the experimental part:
UV-Vis spectral analysis was used to study the stability of the coumarin-chalcone compound C9 at a pH range of 3.4 to 8.4. […] After reaching pH=2, KOH (25 mM) was added slowly until the pH reached 12. In this way, a graph of a relationship between the pH and the volume of KOH added was plotted to find an equivalent point and thus the pKa.
In the embodiment, the stability of the coumarin-chalcone compound C9 was studied. FIGS. 10A to 10C are schematic diagrams illustrating the stability of a coumarin-chalcone compound C9. […] The UV absorption spectroscopy in the pH range of 3.4 to 8.4 further supported the stability of the coumarin-chalcone compound C9. First, HCl (25 mM) was continually added to the coumarin-chalcone compound C9 (initial pH=6.9) until the pH reached 3.4 (FIG. 10B), resulting in an increase in the strength of an absorption band at 330 nm. […] The stability of the coumarin-chalcone compound C9 indicated a great potential to be an anti-QS and anti-biofilm drug.

The subject of data set [6] is Pseudomonas aeruginosa. Briefly: MIC of antibiotics, Calgary biofilm device. Particulars: treated with C9 5 mM, versus untreated group. The class given is cell-based. As for the experimental part:
MIC and MBEC values of a biofilm formed on a peg of a […] biofilm device (CGM and CBD) treated with the coumarin-chalcone compound C9 were measured according to methods (Innovotech) in MBECTM high throughput experimental operation manual. Biofilm treated with the coumarin-chalcone compound C9 (5 mM) was cultured in an antibiotic-containing medium in a 96-well plate for 24 h, and the MIC value was obtained by measuring the OD600 of planktonic cells of the above samples. To determine the MBEC value, the biofilm treated with the coumarin-chalcone compound C9 (5 mM) was cultured in an antibiotic-containing medium in a 96-well plate for 24 h, then the biofilm was ultrasonically crushed and subsequently incubated at 37° C. for another 24 hours. Biomass of newly formed biofilms was recorded to indicate the corresponding MBEC value.

One molecule from US11950594B2, “Methods and compositions for inhibiting formation of biofilms” (INSTITUTE OF MICROBIOLOGY, CHINESE ACADEMY OF SCIENCES, priority 2019, dated 2024) can be followed below.

In general, inhibition refers to the percentage by which the read-out fell short of the control.

Structures are written as SMILES.

Turning to `COc1cccc(/C=C/C(=O)c2cc3ccccc3oc2=O)c1` [Compound C9], in data set [1] (C9 in a range of 1 mM to 5 mM), the “formation of Pseudomonas aeruginosa biofilm” value is on record as “significantly inhibited”. The “reduction of the contents of Pseudomonas aeruginosa PAO1 biofilm” value in data set [1] (FIG. 1, overnight at 30° C., Jensen medium) is 70%. Besides, the inhibition at 5000 µM in data set [1] (Pseudomonas aeruginosa, PAO1, concentration of C9 5 mM, read-out: inhibition rate of biofilm) amounted to 70%. In addition, the “effect on growth of Pseudomonas aeruginosa PAO1 (OD600)” value in data set [2] is given as “no significant effect”. Moreover, in the data set on PAO1 strains, the “twitching motility mediated by type IV pili” value is “no effect”. For the same molecule, in data set [3], the “reduction of Psl production” value is given as 60%. Also, the “reduction of virulence of Pseudomonas aeruginosa in the cabbage model” value in the data set with Pseudomonas aeruginosa [4] is 60%. The “stability at different pH conditions” value in data set [5] was “stable at different pH conditions”. In the data set on Pseudomonas aeruginosa [6], the “MIC of a biofilm against ciprofloxacin” value is “significantly lower” and the “MIC of a biofilm against tobramycin” value was “significantly lower”.
